In US9309276B2, “Synthetic lipid A derivative” (University of Georgia Research Foundation, Inc., priority 2007, dated 2016):

Legend:
mouse TLR2 = molecular target: T1, mouse TLR2 (Mus musculus, UniProt Q9QUN7); assay: NF-κB activation in HEK 293T cells stably transfected with mouse TLR2; type: cell-based; conditions: 103/104 at 0.1, 1 and 10 μg mL−1; Pam3CysSK4 1 μg mL−1; 4 h
T1 construct: host or cells: HEK 293T
Protocol: Induction of NF-κB activation was determined in triplicate cultures of HEK 293T cells stably transfected with human or mouse (a) TLR4/MD2/CD14 and (b) TLR2 and transiently transfected with pELAM-Luc and pRL-TK plasmids. Forty-four h post-transfection, cells were treated with (B) E. coli LPS (10 ng mL^−1), (C) Pam3CysSK4 (1 μg mL^−1), (D, E and F) 103 (0.1, 1 and 10 μg mL^−1, respectively), (G, H and I) 104 (0.1, 1 and 10 μg mL^−1, respectively) or (A) were left untreated (control). Forty-eight h post-transfection, NF-κB activation was determined by firefly luciferase activity relative to Renilla luciferase activity. n.a. indicates not analyzed.
To examine the ability of the synthetic compounds to induce activation of NF-κB, HEK 293T cells were employed that were stably transfected with various immune receptors and transiently transfected with a plasmid containing the reporter gene pELAM-Luc (NF-κB-dependent firefly luciferase reporter vector) and a plasmid containing the control gene pRL-TK (Renilla luciferase control reporter vector) (FIG. 11). […] Although compound 104 is a weak activator of mouse TLR4, it could not induce the secretion of cytokines.
The day before transfection, HEK 293T wild type cells and HEK 293T cells stably transfected with human and murine TLR4/MD2/CD14 and human and murine TLR2 were plated in 96-well tissue culture plates (16,000 cells/well). The next day, cells were transiently transfected using PolyFect Transfection Reagent (Qiagen) with expression plasmids pELAM-Luc (NF-κB-dependent firefly luciferase reporter plasmid, 50 ng/well) (Chow et al., J. Biol. Chem., 1999, 274, 10689-10692) and pRL-TK (Renilla luciferase control reporter vector, 1 ng/well; Promega) as an internal control to normalize experimental variations. […] The luciferase activity was measured using the Dual-Luciferase Reporter Assay System (Promega) according to the manufacturer's instructions and a combination luminometer/fluorometer microplate reader (BMG Labtech). […]

Mono Mac 6 (MM6) cells = assay: TNF-α induction in human monocytic Mono Mac 6 cells (ELISA); type: cell-based; conditions: 5.5 h at 37° C., increasing concentrations
Protocol: MM6 cells were incubated for 5.5 h at 37° C. with increasing concentrations of E. coli LPS and synthetic compounds 103 and 104 as indicated. TNF-α protein in cell supernatants was measured using ELISA. (103 and 104 show background values and therefore overlap in the figure).
We have chemically synthesized the tetra-acylated lipid As 103 and 104 (FIG. 8) to study whether LPS derived from P. gingivalis can induce cellular activation in a TLR2- or TLR4-dependent manner. Furthermore, there are indications that LPS of P. gingivalis can antagonize cytokine production induced by enteric LPS and therefore these properties have also been studied. […]
Mono Mac 6 (MM6) cells, provided by Dr. H. W. L. Ziegler-Heitbrock (Institute for Inhalationbiology, Munich, Germany), were cultured in RPMI 1640 medium with L-glutamine (BioWhittaker) supplemented with penicillin (100 u mL^−1)/streptomycin (100 μg mL^−1; Mediatech, OPI supplement (1%; Sigma; containing oxaloacetate, pyruvate and bovine insulin) and fetal calf serum (FCS; 10%; HyClone). New batches of frozen cell stock were grown up every 2 months and growth morphology evaluated. Before each experiment, MM6 cells were incubated with calcitriol (10 ng mL^−1; Sigma) for 2 days to differentiate into macrophage like cells. […]

T1 sequence (Q9QUN7 25-784): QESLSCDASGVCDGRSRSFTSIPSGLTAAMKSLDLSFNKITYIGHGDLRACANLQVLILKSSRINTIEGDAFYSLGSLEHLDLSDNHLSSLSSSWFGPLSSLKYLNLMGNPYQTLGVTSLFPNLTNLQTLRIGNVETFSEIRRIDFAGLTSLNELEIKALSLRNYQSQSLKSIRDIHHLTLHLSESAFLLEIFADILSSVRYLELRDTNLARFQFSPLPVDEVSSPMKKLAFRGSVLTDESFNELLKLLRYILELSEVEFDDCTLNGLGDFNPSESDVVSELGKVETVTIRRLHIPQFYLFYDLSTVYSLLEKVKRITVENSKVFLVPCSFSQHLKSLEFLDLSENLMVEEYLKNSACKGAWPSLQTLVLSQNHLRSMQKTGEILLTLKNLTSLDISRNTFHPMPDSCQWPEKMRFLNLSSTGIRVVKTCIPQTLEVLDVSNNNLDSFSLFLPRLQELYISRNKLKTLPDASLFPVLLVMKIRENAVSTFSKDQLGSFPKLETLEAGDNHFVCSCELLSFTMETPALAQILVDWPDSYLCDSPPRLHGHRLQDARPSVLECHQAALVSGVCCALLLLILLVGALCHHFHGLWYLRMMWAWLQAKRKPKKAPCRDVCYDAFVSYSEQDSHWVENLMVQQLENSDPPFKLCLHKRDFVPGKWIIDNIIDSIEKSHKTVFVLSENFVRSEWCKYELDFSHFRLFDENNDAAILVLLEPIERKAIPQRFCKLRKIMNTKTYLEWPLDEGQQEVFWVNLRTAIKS

CCCCCCCCCCCCCCCC(=O)O[C@H](CCCCCCCCCCCC(C)C)CC(=O)N[C@H]1[C@H](OC[C@H]2O[C@H](OP(=O)(O)O)[C@H](NC(=O)C[C@H](O)CCCCCCCCCCCC(C)C)[C@@H](OC(=O)C[C@H](O)CCCCCCCCCCCCC)[C@@H]2O)O[C@H](CO)[C@@H](O)[C@@H]1O [Compound 103, 6-O-{2-Deoxy-2-[(R)-3-hexadecanoyloxy-15-methyl-hexadecanoylamino]-β-D-glucopyranosyl}-3-O—[(R)-3-hydroxy-hexadecanoyl]-2-deoxy-2-[(R)-3-hydroxy-15-methyl-hexadecanoylamino]-α-D-glucopyranose 1-phosphate]
NF-κB activation, mouse TLR2 (mouse TLR2): No activation of NF-κB
TNF-α induction (in words) (Mono Mac 6 (MM6) cells): did not exhibit any activity

CCCCCCCCCCCCCCCC(=O)O[C@H](CCCCCCCCCCCC(C)C)CC(=O)N[C@H]1[C@H](OC[C@H]2O[C@H](OP(=O)(O)O)[C@H](NC(=O)C[C@H](O)CCCCCCCCCCCC(C)C)[C@@H](O)[C@@H]2O)O[C@H](CO)[C@@H](O)[C@@H]1ONC(=O)C[C@H](O)CCCCCCCCCC(C)C [Compound 104, 6-O-{2-Deoxy-2-[(R)-3-hexadecanoyloxy-15-methyl-hexadecanoylamino]-3-O—[(R)-3-hydroxy-13-methyl-tetradecanoylamino]-β-D-glucopyranosyl}-2-deoxy-2-[(R)-3-hydroxy-15-methyl-hexadecanoylamino]-α-D-glucopyranose 1-phosphate]
NF-κB activation, mouse TLR2 (mouse TLR2): No activation of NF-κB
TNF-α induction (in words) (Mono Mac 6 (MM6) cells): did not exhibit any activity
